Assay results reported in the NIST ThermoML archive (doi:10.1016/j.fluid.2004.09.013).

Details: for mass density: Fluid (supercritical or subcritical phases), Vibrating tube method

C=CCC [1-butene]
Details | Critical density [kg/m3] | mass density [kg/m3]
453.25 K, 9992 kPa | – | 366.88
458.24 K, 5019 kPa | – | 127.66
458.24 K, 14983 kPa | – | 409.67
458.24 K, 20004 kPa | – | 440.23
458.24 K, 29989 kPa | – | 478.1
458.24 K, 34985 kPa | – | 491.83
458.24 K, 39994 kPa | – | 503.63
458.25 K, 9993 kPa | – | 354.52
458.25 K, 25009 kPa | – | 461.51
463.24 K, 5016 kPa | – | 120.75
463.24 K, 14996 kPa | – | 401.9
463.24 K, 19997 kPa | – | 433.9
463.24 K, 25004 kPa | – | 456.08
463.24 K, 30003 kPa | – | 473.27
463.24 K, 34993 kPa | – | 487.39
463.25 K, 9983 kPa | – | 341.52
463.25 K, 39998 kPa | – | 499.47
468.24 K, 5016 kPa | – | 115
468.24 K, 9989 kPa | – | 328.56
468.24 K, 14982 kPa | – | 393.76
468.24 K, 19984 kPa | – | 427.48
468.24 K, 24997 kPa | – | 450.6
468.24 K, 30000 kPa | – | 468.38
468.24 K, 35011 kPa | – | 482.95
468.24 K, 39999 kPa | – | 495.31
473.24 K, 5018 kPa | – | 110.27
473.24 K, 9985 kPa | – | 315.25
473.24 K, 19988 kPa | – | 421.13
473.24 K, 24992 kPa | – | 445.14
473.24 K, 29997 kPa | – | 463.51
473.24 K, 35002 kPa | – | 478.49
473.24 K, 39996 kPa | – | 491.17
473.25 K, 14995 kPa | – | 385.74
478.24 K, 5019 kPa | – | 106.11
478.24 K, 9987 kPa | – | 302.04
478.24 K, 14989 kPa | – | 377.47
478.24 K, 19983 kPa | – | 414.69
478.24 K, 24987 kPa | – | 439.66
478.24 K, 30006 kPa | – | 458.68
478.24 K, 35011 kPa | – | 474.08
478.24 K, 39998 kPa | – | 487.02
483.24 K, 5019 kPa | – | 102.43
483.24 K, 9986 kPa | – | 289.02
483.24 K, 14996 kPa | – | 369.24
483.24 K, 19994 kPa | – | 408.37
483.24 K, 24993 kPa | – | 434.22
483.24 K, 30007 kPa | – | 453.8
483.24 K, 35009 kPa | – | 469.63
483.24 K, 39997 kPa | – | 482.92
488.24 K, 5019 kPa | – | 99.18
488.24 K, 9991 kPa | – | 276.55
488.24 K, 14995 kPa | – | 361.05
488.24 K, 20003 kPa | – | 402.02
488.24 K, 24984 kPa | – | 428.73
488.24 K, 29996 kPa | – | 448.96
488.24 K, 35002 kPa | – | 465.2
488.24 K, 39995 kPa | – | 478.82
493.24 K, 5019 kPa | – | 96.24
493.24 K, 9993 kPa | – | 264.66
493.24 K, 14985 kPa | – | 352.7
493.24 K, 19990 kPa | – | 395.6
493.24 K, 24997 kPa | – | 423.36
493.24 K, 30000 kPa | – | 444.14
493.24 K, 35000 kPa | – | 460.8
493.24 K, 39994 kPa | – | 474.74
498.24 K, 5019 kPa | – | 93.59
498.24 K, 9985 kPa | – | 253.12
498.24 K, 14988 kPa | – | 344.51
498.24 K, 19988 kPa | – | 389.08
498.24 K, 25004 kPa | – | 417.97
498.24 K, 30000 kPa | – | 439.33
498.24 K, 35005 kPa | – | 456.43
498.24 K, 39995 kPa | – | 470.68
503.24 K, 5016 kPa | – | 91.1
503.24 K, 9996 kPa | – | 242.88
503.24 K, 14997 kPa | – | 336.49
503.24 K, 19985 kPa | – | 382.45
503.24 K, 25003 kPa | – | 412.55
503.24 K, 29994 kPa | – | 434.51
503.24 K, 34998 kPa | – | 452.04
503.24 K, 39994 kPa | – | 466.64
508.24 K, 5019 kPa | – | 88.94
508.24 K, 9985 kPa | – | 232.83
508.24 K, 14995 kPa | – | 328.41
508.24 K, 20001 kPa | – | 376.3
508.24 K, 25001 kPa | – | 407.17
508.24 K, 29985 kPa | – | 429.72
508.24 K, 34995 kPa | – | 447.71
508.24 K, 39994 kPa | – | 462.63
513.23 K, 19985 kPa | – | 369.92
513.23 K, 35000 kPa | – | 443.43
513.24 K, 5019 kPa | – | 86.9
513.24 K, 9990 kPa | – | 224.06
513.24 K, 14981 kPa | – | 320.32
513.24 K, 24995 kPa | – | 401.8
513.24 K, 30001 kPa | – | 425.05
513.24 K, 39991 kPa | – | 458.64
518.23 K, 5019 kPa | – | 85.01
518.23 K, 14997 kPa | – | 312.76
518.23 K, 19988 kPa | – | 363.73
518.23 K, 25002 kPa | – | 396.53
518.23 K, 30001 kPa | – | 420.37
518.23 K, 35013 kPa | – | 439.18
518.24 K, 9981 kPa | – | 215.7
518.24 K, 39995 kPa | – | 454.74
523.23 K, 5018 kPa | – | 83.27
523.23 K, 9990 kPa | – | 208.53
523.23 K, 14996 kPa | – | 305.24
523.23 K, 19995 kPa | – | 357.64
523.23 K, 25003 kPa | – | 391.29
523.23 K, 30001 kPa | – | 415.71
523.23 K, 35000 kPa | – | 434.96
523.23 K, 40001 kPa | – | 450.86
Liquid, visual observation in a variable volume cell:FP | 237.88 | –

Liquid
Details | Critical pressure [kPa] | Critical temperature [K]
– | 4005.1 | 419.29
